Test results as given in ChEMBL document CHEMBL5113527, “First-in-Class Hydrazide-Based HDAC6 Selective Inhibitor with Potent Oral Anti-Inflammatory Activity by Attenuating NLRP3 Inflammasome Activation” (J Med Chem, 2022).
Calls of active or inactive are those of the source. No cut-off for these calls is given here.

Key:
[1] = Acute toxicity in LPS-induced endotoxic shock C57BL/6 mouse model assessed as effect on body weight at 500 mg/kg, po administered as single dose for 15 days; format: organism-based; conditions: in vivo, 360 h, time 15 day
[2] = Ratio of drug concentration in brain to plasma of CD-1 mouse measured after 0.5 hrs by LC-MS/MS analysis; format: ADME; conditions: read-out: BPR
[3] = Brain concentration in CD-1 mouse at 20 mg/kg measured after 4 hrs by LC-MS/MS analysis; format: ADME, organism-based; conditions: read-out: Ct
[4] = Ratio of drug concentration in brain to plasma of CD-1 mouse measured after 1 hrs by LC-MS/MS analysis; format: ADME
[5] = target: T1, Histone deacetylase 7 (Homo sapiens, UniProt Q8WUI4); assay: Inhibition of recombinant HDAC7 (unknown origin) using Boc-Lys (trifluoroacetyl) AMC as substrate preincubated for 1 hr followed by substrate addition and measured after 2 hrs by fluorescence based microplate reader analysis
T1 sequence (Q8WUI4 whole entry): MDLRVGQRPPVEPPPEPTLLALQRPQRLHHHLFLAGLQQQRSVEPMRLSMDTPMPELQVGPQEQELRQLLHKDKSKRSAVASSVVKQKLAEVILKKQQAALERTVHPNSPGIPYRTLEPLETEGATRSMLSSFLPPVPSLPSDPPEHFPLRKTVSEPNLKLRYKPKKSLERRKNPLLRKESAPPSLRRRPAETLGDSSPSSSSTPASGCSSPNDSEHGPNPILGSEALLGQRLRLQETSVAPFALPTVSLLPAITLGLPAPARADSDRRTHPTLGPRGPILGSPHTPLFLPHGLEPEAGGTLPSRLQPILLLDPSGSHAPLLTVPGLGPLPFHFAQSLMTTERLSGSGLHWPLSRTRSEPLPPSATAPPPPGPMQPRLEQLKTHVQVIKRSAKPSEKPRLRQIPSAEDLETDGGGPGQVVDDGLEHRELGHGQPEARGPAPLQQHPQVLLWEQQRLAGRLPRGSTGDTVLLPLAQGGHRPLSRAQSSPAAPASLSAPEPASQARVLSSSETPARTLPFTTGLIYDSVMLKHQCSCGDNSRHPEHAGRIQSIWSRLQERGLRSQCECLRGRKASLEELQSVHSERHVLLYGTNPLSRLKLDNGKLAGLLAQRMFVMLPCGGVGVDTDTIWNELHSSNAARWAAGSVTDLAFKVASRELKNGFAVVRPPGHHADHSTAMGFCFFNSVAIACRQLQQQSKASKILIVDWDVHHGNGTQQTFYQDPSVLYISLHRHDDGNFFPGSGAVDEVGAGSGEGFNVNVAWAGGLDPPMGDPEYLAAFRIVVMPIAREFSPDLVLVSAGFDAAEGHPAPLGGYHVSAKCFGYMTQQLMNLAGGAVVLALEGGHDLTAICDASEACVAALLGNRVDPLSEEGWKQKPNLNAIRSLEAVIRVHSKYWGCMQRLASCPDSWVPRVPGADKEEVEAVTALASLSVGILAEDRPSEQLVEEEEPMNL

[6] = Brain concentration in CD-1 mouse at 20 mg/kg measured after 2 hrs by LC-MS/MS analysis; format: ADME, organism-based; conditions: read-out: Ct
[7] = test system: Mus musculus; assay: Inhibition of LPS-induced endotoxic shock in C57BL/6 mouse model serum assessed as decrease in IL-1beta level at 20 mg/kg, ip measured after 12 hrs; format: functional, organism-based
[8] = target: Histone deacetylase 4 (Homo sapiens, UniProt P56524); assay: Inhibition of recombinant HDAC4 (unknown origin) using Boc-Lys (trifluoroacetyl) AMC as substrate preincubated for 1 hr followed by substrate addition and measured after 2 hrs by fluorescence based microplate reader analysis
[9] = Plasma concentration in CD-1 mouse at 20 mg/kg measured after 2 hrs by LC-MS/MS analysis; format: ADME, organism-based
[10] = Brain concentration in CD-1 mouse at 20 mg/kg measured after 0.5 hrs by LC-MS/MS analysis; format: ADME, organism-based; conditions: read-out: Ct
[11] = test system: J774.A1; assay: Antiinflammatory activity against LPS primed mouse J774.A1 cells assessed suppression of LPS/ATP induced IL-beta release preincubated for 30 mins followed by ATP stimulation measured after 30 mins by ELISA; format: functional, cell-based
[12] = Ratio of drug concentration in brain to plasma of CD-1 mouse measured after 2 hrs by LC-MS/MS analysis; format: ADME; conditions: read-out: BPR

Chain of Histone deacetylase 4 (P56524 whole entry): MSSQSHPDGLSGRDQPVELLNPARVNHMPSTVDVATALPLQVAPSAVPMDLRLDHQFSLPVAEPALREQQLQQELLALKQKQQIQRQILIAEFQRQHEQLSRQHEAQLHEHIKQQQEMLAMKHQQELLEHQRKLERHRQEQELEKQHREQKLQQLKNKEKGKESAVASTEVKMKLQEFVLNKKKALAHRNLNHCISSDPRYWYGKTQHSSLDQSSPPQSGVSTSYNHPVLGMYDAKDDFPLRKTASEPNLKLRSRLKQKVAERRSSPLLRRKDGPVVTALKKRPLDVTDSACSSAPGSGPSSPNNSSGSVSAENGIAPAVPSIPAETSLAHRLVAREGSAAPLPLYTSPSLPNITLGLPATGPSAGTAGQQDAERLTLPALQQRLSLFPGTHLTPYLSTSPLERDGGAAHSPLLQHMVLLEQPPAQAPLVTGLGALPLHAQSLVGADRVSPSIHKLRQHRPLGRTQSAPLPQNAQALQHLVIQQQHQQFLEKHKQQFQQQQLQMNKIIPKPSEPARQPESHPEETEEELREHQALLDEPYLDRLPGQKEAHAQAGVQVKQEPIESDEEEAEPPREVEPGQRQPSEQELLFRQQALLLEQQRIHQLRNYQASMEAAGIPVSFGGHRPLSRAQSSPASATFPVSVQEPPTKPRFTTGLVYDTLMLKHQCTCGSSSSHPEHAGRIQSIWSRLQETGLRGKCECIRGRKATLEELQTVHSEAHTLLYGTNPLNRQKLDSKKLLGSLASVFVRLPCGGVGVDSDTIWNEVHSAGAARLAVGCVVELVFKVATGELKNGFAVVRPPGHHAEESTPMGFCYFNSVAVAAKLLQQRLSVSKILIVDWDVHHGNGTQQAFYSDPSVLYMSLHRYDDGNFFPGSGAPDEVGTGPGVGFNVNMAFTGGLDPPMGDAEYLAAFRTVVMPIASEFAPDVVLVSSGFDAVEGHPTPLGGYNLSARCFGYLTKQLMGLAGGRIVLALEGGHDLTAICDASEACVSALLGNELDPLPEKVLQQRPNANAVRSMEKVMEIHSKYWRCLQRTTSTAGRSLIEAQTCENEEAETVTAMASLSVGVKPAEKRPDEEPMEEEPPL

With CCNNC(=O)c1ccc(CN2c3ccccc3C=Cc3ccncc32)cc1 the Activity [1] was “Non-Toxic”, the Kp at 0.5 h [2] was 1.45 and the concentration at 4 h [3] was 245 ng/mL. It also gave a Kp at 1 h [4] of 1.26, an IC50 [5] greater than 5 µM and a concentration at 2 h [6] of 3280 ng/mL. For the same compound, the Activity [7] was “Active”, the IC50 [8] was greater than 5 µM and the concentration at 2 h [9] was 2320 ng/mL. It also gave a concentration at 0.5 h [10] of 11300 ng/mL, an IC50 [11] of 2.61 µM and a Kp at 2 h [12] of 1.42.
